{
  "source": "patent US10201559B2",
  "about": "“Compositions of selenoorganic compounds and methods of use thereof” (Alltech, Inc., priority 2014, dated 2019)",
  "key": {"Gsk3b": {"system": "Gsk3b", "assay": "Western blot, Gsk3b in IMR-32 cells", "format": "cell-based, human", "details": "150 ppb, 24 hr, compared to control cells", "protocol": "(§1) IMR-32 and AML12 cells were seeded on 6-well plates, and then treated with vehicle and various compounds for 6 and 24 hr, as described above. After treatments, cells were rinsed with ice-cold PBS, and lysed in the ice-cold RIPA buffer containing complete proteinase and phosphotase inhibitors (Themo-Fisher Scientific, Waltham, Mass.) on ice for 30 min. Cell lysates were collected using a cell scraper and transfer pipette, and then centrifuged at 12000 g for 30 min at 4° C. to remove the DNA pellet and obtain the protein extract. Protein levels in the supernatant of these cell lysates were determined using the Pierce Micro-BCA protein assay kit (Themo Scientific-Piece Biotechnology, Rockford, Ill.) according to the manufacturer's protocol.\n(§2) For Western blot analysis, five micrograms of total proteins from vehicle- and compound(s)-treated cells were subjected to SDS-PAGE gel separation, and then transferred to PVDF membranes, as described previously (Reddy, Liu et al. 2008 Science). […] All primary antibodies except G6PC (Santa Cruz), Actb (Li-COR, Lincoln, Nebr.), Elf2bε and pElf2bε (Abcam, Cambridge, Mass.) were purchased from Cell Signaling Inc. Positive signals on the membrane blots were detected using the Amersham's enhanced chemiluminescence Western Blotting Prime Detection reagents (GE healthcare Lifescience, Pittsburgh, Pa.). […]"}, "C2C12 cells [1]": {"system": "C2C12 cells", "assay": "Cell viability assay, C2C12", "format": "cell-based, mouse", "details": "24 hr and 48 hr, same doses", "protocol": "Cell viability in cultured cells was determined using Promega's CellTiter96® AQueous One Solution Cell Proliferation Assay kits, according to the Manufacturer's protocol. In brief, equal number of C2C12 (1×10^4 cells/well), AML-12 (1×10^4 cells/well) and IMR-32 (2×10^4 cells/well) were seeded on 96-well clear plates (VWR) and treated with vehicle or compounds for 24, […] and/or 72 hr. Then, cultured cells were incubated with AQueous One solution (100 ul/per well) at 37° C. for 1 hr, and the absorbance of OD490 nm in each sample was determined by the Bio-Tek microplate reader. Cell viability in culture cells were determined by the subtraction of OD490 nm in cultured cells with the OD490 nm in plain culture media (without seeding of cells). Eight samples per each treatment were examined for the above analysis. Data are presented as Mean±sem of eight samples."}, "beta-secretase BACE": {"system": "beta-secretase BACE", "assay": "Western blot, BACE in IMR-32 cells", "format": "cell-based, human", "details": "150 ppb, 24 hr", "protocol": "as §1, §2"}, "C2C12 cells [2]": {"system": "C2C12 cells", "assay": "Quantitative analysis of mitochondrial potential in C2C12 cells", "format": "cell-based, mouse", "details": "for MT potential: 24 hr, compared to control", "protocol": "For C2C12 cells, equal number of cells (1×10^4) were seeded on Corning 96-well clear-bottom and dark-wall cell culture plates (VWR), cultured in 10% FBS DMEM media for 24 hr., and then treated with vehicle (sterilized water), compound C and D and their sulfur analogs for 24 and 48 hrs. These vehicle- or compound-treated cells were rinsed twice with PBS, incubated with Mitotracker Orange fluorescence dye at 37° C. for 30 min, and then replaced with PBS. Mitotracker Orange fluorescence intensities (mitochondrial potential) in these living cells were determined by a Bio-TeK Synergy HT Multi-Mode Fluorescence Microplate Reader (Winooski, Vt.). Eight samples per each treatment were examined for the above analysis, and data are presented as mean±sem of eight samples."}, "PSEN": {"system": "PSEN", "assay": "Western blot, PSEN in IMR-32 cells", "format": "cell-based, human", "details": "150 ppb, 24 hr", "protocol": "as §1, §2"}, "PEN2": {"system": "PEN2", "assay": "Western blot, PEN2 in IMR-32 cells", "format": "cell-based, human", "details": "150 ppb, 24 hr", "protocol": "as §1, §2"}},
  "note": "Entries after “also recorded” stand apart in the source; their conditions may differ.",
  "data": [
    {"molecule": "C[Se]C[C@H]1O[C@@H](n2cnc3c(N)ncnc32)C(O)C1O", "note": "(stereo in doubt) [compound C, 5′-Methylselenoadenosine]", "values": [
      {"measurement": "Gsk3b protein levels", "setting": "Gsk3b", "result": "statistically significant decrease of Gsk3b protein levels"},
      {"measurement": "cell viability", "setting": "C2C12 cells [1]", "result": "did not affect cell viability"},
      {"measurement": "beta-secretase BACE protein", "setting": "beta-secretase BACE", "result": "but not PEN2 and beta-secretase BACE proteins were attenuated"},
      {"measurement": "MT potential", "setting": "C2C12 cells [2]", "result": "significantly enhanced MT potential"},
      {"measurement": "PSEN protein level", "setting": "PSEN", "result": "significant reduction"},
      {"measurement": "PEN2 protein", "setting": "PEN2", "result": "but not PEN2 and beta-secretase BACE proteins were attenuated"}
    ]},
    {"molecule": "Nc1ncnc2c1ncn2[C@@H]1O[C@H](C[Se]CC[C@@H](N)C(=O)O)C(O)C1O", "note": "(stereo partly shown) [compound D, 5′-Selenoadenosyl homocysteine]", "values": [
      {"measurement": "cell viability", "setting": "C2C12 cells [1]", "result": "did not affect cell viability"},
      {"measurement": "MT potential", "setting": "C2C12 cells [2]", "result": "significantly enhanced MT potential"},
      {"measurement": "potency on MT potential relative to compound C", "setting": "C2C12 cells [2]; lower doses (37.5 and 75 ppb)", "result": "more potent than compound C"},
      {"measurement": "stimulation of mitochondrial activity over control levels", "setting": "C2C12 cells [2]; most effective dose", "result": "two-fold over control levels; also recorded: two-fold stimulation of mitochondrial activity"}
    ]}
  ]
}
